The test system of data set [1] is Rattus norvegicus. As to the kind of experiment: Toxicity in rat spontaneous hypertensive model assessed as heart rate at 80 mg/kg, po measured at 8 hrs by tail-cuff method (reference value: 397.2 +/- 24.87 bpm). Format: organism-based. Also noted: dose 80 mg/kg, route oral. To be noted: in vivo.
The subject of data set [2] is Rattus norvegicus. As to the kind of experiment: Antihypertensive activity in rat spontaneous hypertensive model assessed as mean arterial blood pressure at 80 mg/kg, po measured at 1 hr by tail-cuff method (reference value: 158.9 +/- 13.65 mmHg). It is filed as functional, Artery.
In data set [3] the test system is Rattus norvegicus. As to the kind of experiment: Antihypertensive activity in rat spontaneous hypertensive model assessed as systolic arterial blood pressure at 80 mg/kg, po measured at 0.5 hrs by tail-cuff method (reference value: 178.5 +/- 10.13 mmHg). It is filed as functional, Artery.
Data set [4] deals with Rattus norvegicus. As to the kind of experiment: Toxicity in rat spontaneous hypertensive model assessed as heart rate at 80 mg/kg, po measured at 2 hrs by tail-cuff method (reference value: 399.5 +/- 19.68 bpm). More on the design: dose 80 mg/kg, route oral. It is filed as organism-based. To be noted: in vivo.
The test system of data set [5] is Rattus norvegicus. As to the kind of experiment: Antihypertensive activity in rat spontaneous hypertensive model assessed as mean arterial blood pressure at 80 mg/kg, po measured at 0.5 hrs by tail-cuff method (reference value: 156.2 +/- 7.21 mmHg). It is filed as functional, Artery.
Data set [6] relates to Rattus norvegicus. Kind of data set: Antihypertensive activity in rat spontaneous hypertensive model assessed as systolic arterial blood pressure at 80 mg/kg, po measured at 8 hrs by tail-cuff method (reference value: 174 +/- 12.1 mmHg). Format: functional, Artery.
Data set [7] relates to Rattus norvegicus. Kind of data set: Antihypertensive activity in rat spontaneous hypertensive model assessed as mean arterial blood pressure at 80 mg/kg, po measured at 6 hrs by tail-cuff method (reference value: 155.8 +/- 7.97 mmHg). Format: functional, Artery.
Data set [8] concerns Rattus norvegicus. As to the kind of experiment: Antihypertensive activity in rat spontaneous hypertensive model assessed as systolic arterial blood pressure at 80 mg/kg, po measured at 4 hrs by tail-cuff method (reference value: 172.9 +/- 10.21 mmHg). It is filed as functional, Artery.
Data set [9] deals with Rattus norvegicus. Kind of data set: Antihypertensive activity in rat spontaneous hypertensive model assessed as systolic arterial blood pressure at 80 mg/kg, po measured at 2 hrs by tail-cuff method (reference value: 172.6 +/- 17.3 mmHg). Format: functional, Artery.
Data set [10] has as its system Rattus norvegicus. Kind of data set: Antihypertensive activity in rat spontaneous hypertensive model assessed as mean arterial blood pressure at 80 mg/kg, po measured at 2 hrs by tail-cuff method (reference value: 157.41 +/- 9.62 mmHg). It is filed as functional, Artery.
Data set [11] deals with Rattus norvegicus. Kind of data set: Antihypertensive activity in rat spontaneous hypertensive model assessed as diastolic arterial blood pressure at 80 mg/kg, po measured at 6 hrs by tail-cuff method (reference value: 141.2 +/- 7.34 mmHg). It is filed as functional, Artery.
For data set [12], the system named is Rattus norvegicus. As to the kind of experiment: Toxicity in rat spontaneous hypertensive model assessed as heart rate at 80 mg/kg, po measured at 1 hr by tail-cuff method (reference value: 403.9 +/- 12.41 bpm). To be noted: in vivo. More on the design: dose 80 mg/kg, route oral. It is filed as organism-based.
The test system of data set [13] is Rattus norvegicus. As to the kind of experiment: Antihypertensive activity in rat spontaneous hypertensive model assessed as mean arterial blood pressure at 80 mg/kg, po measured at 4 hrs by tail-cuff method (reference value: 154.4 +/- 20.1 mmHg). Format: functional, Artery.
For data set [14], the system named is Rattus norvegicus. Kind of data set: Antihypertensive activity in rat spontaneous hypertensive model assessed as diastolic arterial blood pressure at 80 mg/kg, po measured at 1 hr by tail-cuff method (reference value: 146.2 +/- 13.19 mmHg). It is filed as functional, Artery.
Data set [15] has as its system Rattus norvegicus. As to the kind of experiment: Antihypertensive activity in rat spontaneous hypertensive model assessed as diastolic arterial blood pressure at 80 mg/kg, po measured at 8 hrs by tail-cuff method (reference value: 135.3 +/- 8.21 mmHg). Format: functional, Artery.
The test system of data set [16] is Rattus norvegicus. As to the kind of experiment: Antihypertensive activity in rat spontaneous hypertensive model assessed as systolic arterial blood pressure at 80 mg/kg, po measured at 1 hr by tail-cuff method (reference value: 181.2 +/- 16.37 mmHg). It is filed as functional, Artery.
Data set [17] concerns Rattus norvegicus. Kind of data set: Toxicity in rat spontaneous hypertensive model assessed as heart rate at 80 mg/kg, po measured at 0.5 hrs by tail-cuff method (reference value: 406.5 +/- 13.15 bpm). Format: organism-based. More on the design: dose 80 mg/kg, route oral. To be noted: in vivo.
Data set [18] has as its system Rattus norvegicus. Kind of data set: Antihypertensive activity in rat spontaneous hypertensive model assessed as systolic arterial blood pressure at 80 mg/kg, po measured at 6 hrs by tail-cuff method (reference value: 176.7 +/- 15.21 mmHg). It is filed as functional, Artery.
Data set [19] relates to Rattus norvegicus. As to the kind of experiment: Antihypertensive activity in rat spontaneous hypertensive model assessed as mean arterial blood pressure at 80 mg/kg, po measured at 8 hrs by tail-cuff method (reference value: 155.8 +/- 11.54 mmHg). It is filed as functional, Artery.
Data set [20] concerns Rattus norvegicus. As to the kind of experiment: Toxicity in rat spontaneous hypertensive model assessed as heart rate at 80 mg/kg, po measured at 4 hrs by tail-cuff method (reference value: 403.1 +/- 15.92 bpm). It is filed as organism-based. To be noted: in vivo. Also noted: dose 80 mg/kg, route oral.
For data set [21], the system named is Rattus norvegicus. As to the kind of experiment: Antihypertensive activity in rat spontaneous hypertensive model assessed as diastolic arterial blood pressure at 80 mg/kg, po measured at 4 hrs by tail-cuff method (reference value: 141.4 +/- 7.11 mmHg). Format: functional, Artery.
For data set [22], the system named is Rattus norvegicus. As to the kind of experiment: Toxicity in rat spontaneous hypertensive model assessed as heart rate at 80 mg/kg, po measured at 6 hrs by tail-cuff method (reference value: 405.1 +/- 24 bpm). Format: organism-based. More on the design: dose 80 mg/kg, route oral. To be noted: in vivo.
Data set [23] has as its system Rattus norvegicus. Kind of data set: Antihypertensive activity in rat spontaneous hypertensive model assessed as diastolic arterial blood pressure at 80 mg/kg, po measured at 0.5 hrs by tail-cuff method (reference value: 138.7 +/- 9.2 mmHg). Format: functional, Artery.
In data set [24] the test system is Rattus norvegicus. Kind of data set: Antihypertensive activity in rat spontaneous hypertensive model assessed as diastolic arterial blood pressure at 80 mg/kg, po measured at 2 hrs by tail-cuff method (reference value: 142.9 +/- 18.07 mmHg). Format: functional, Artery.

For `COc1cc2c(cc1OCC(O)CNC(C)C)C(=O)C(C)OC2` (configuration not stated), the Activity in the data set on Rattus norvegicus [1] turned out to be 367.7 bpm; in the data set on Rattus norvegicus [2] it was 128.8 mmHg; with Rattus norvegicus [3], 174.1 mmHg; in the data set on Rattus norvegicus [4], 356.9 bpm; with Rattus norvegicus [5], 134 mmHg; in the data set on Rattus norvegicus [6], 162.6 mmHg. The Activity in the data set with Rattus norvegicus [7] stood at 121 mmHg; with Rattus norvegicus [8], 166.6 mmHg; in the data set with Rattus norvegicus [9], 165.7 mmHg; in the data set with Rattus norvegicus [10], 122.1 mmHg; in the data set on Rattus norvegicus [11], 99 mmHg; in the data set on Rattus norvegicus [12], 365.6 bpm. The Activity with Rattus norvegicus [13] is listed as 118.1 mmHg; with Rattus norvegicus [14], 113.9 mmHg; with Rattus norvegicus [15], 107.7 mmHg; in the data set on Rattus norvegicus [16], 164.5 mmHg; in the data set on Rattus norvegicus [17] it was 367 bpm; in the data set on Rattus norvegicus [18] it was 164.2 mmHg. Besides, the Activity in the data set on Rattus norvegicus [19] is recorded as 124.2 mmHg; with Rattus norvegicus [20] it was 358.5 bpm; in the data set on Rattus norvegicus [21] it was 99.8 mmHg; in the data set on Rattus norvegicus [22], 355.2 bpm; in the data set on Rattus norvegicus [23], 113.7 mmHg; with Rattus norvegicus [24], 101 mmHg.

Take `COc1cc2c(cc1OCC(O)CNC(C)C)COC(C)C2=O` (configuration not stated): the Activity with Rattus norvegicus [1] is recorded as 372.8 bpm; in the data set with Rattus norvegicus [2], 123.1 mmHg; with Rattus norvegicus [3] it was 169.2 mmHg; in the data set on Rattus norvegicus [4] it was 365.1 bpm; with Rattus norvegicus [5] it was 142.2 mmHg; in the data set with Rattus norvegicus [6], 158.3 mmHg. In addition, the Activity stood at 114 mmHg in the data set with Rattus norvegicus [7]; 141 mmHg with Rattus norvegicus [8]; 152.8 mmHg in the data set on Rattus norvegicus [9]; 103.9 mmHg in the data set with Rattus norvegicus [10]; 91.4 mmHg in the data set with Rattus norvegicus [11]; 378.3 bpm in the data set with Rattus norvegicus [12]. Further, the Activity is listed as 97.8 mmHg in the data set with Rattus norvegicus [13]; 102.8 mmHg with Rattus norvegicus [14]; 98 mmHg in the data set with Rattus norvegicus [15]; 160.9 mmHg in the data set on Rattus norvegicus [16]; 385.4 bpm with Rattus norvegicus [17]; 150.5 mmHg in the data set with Rattus norvegicus [18]. Moreover, the Activity with Rattus norvegicus [19] is reported as 119 mmHg; in the data set on Rattus norvegicus [20], 361.4 bpm; in the data set on Rattus norvegicus [21], 83 mmHg; with Rattus norvegicus [22], 370 bpm; in the data set with Rattus norvegicus [23], 128.7 mmHg; in the data set on Rattus norvegicus [24] it was 84.1 mmHg.

As to `COc1ccc2c(c1OCC(O)CNC(C)C)COC(C)C2=O` (configuration not stated), the Activity with Rattus norvegicus [1] is on record as 372.8 bpm; in the data set on Rattus norvegicus [2] it was 133.1 mmHg; with Rattus norvegicus [3], 175.3 mmHg; in the data set with Rattus norvegicus [4] it was 368.8 bpm; with Rattus norvegicus [5], 144.8 mmHg; in the data set with Rattus norvegicus [6] it was 166.3 mmHg. For the same compound, the Activity turned out to be 138.9 mmHg with Rattus norvegicus [7]; 170.9 mmHg with Rattus norvegicus [8]; 169 mmHg with Rattus norvegicus [9]; 129.3 mmHg in the data set with Rattus norvegicus [10]; 124.4 mmHg in the data set with Rattus norvegicus [11]; 375 bpm in the data set on Rattus norvegicus [12]. Besides, the Activity stood at 135.4 mmHg in the data set on Rattus norvegicus [13]; 114.6 mmHg with Rattus norvegicus [14]; 122.9 mmHg in the data set on Rattus norvegicus [15]; 170.1 mmHg with Rattus norvegicus [16]; 383.4 bpm in the data set with Rattus norvegicus [17]; 168 mmHg in the data set on Rattus norvegicus [18]. Besides, the Activity in the data set on Rattus norvegicus [19] is listed as 137.4 mmHg; in the data set on Rattus norvegicus [20] it was 373.2 bpm; in the data set with Rattus norvegicus [21] it was 117.7 mmHg; in the data set on Rattus norvegicus [22] it was 374.7 bpm; in the data set with Rattus norvegicus [23] it was 129.6 mmHg; in the data set with Rattus norvegicus [24], 109.5 mmHg.
